Data published in PubChem BioAssay (NCI).
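Compound exposure: 48 hours, 5 concentrations, 96-well plates. TGI denotes the concentration required for complete inhibition of growth.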

Assays:
Assay in all cases: growth of human tumour cells (NCI), 48 h
HCC-2998 colon = system: HCC-2998 colon
SK-MEL-28 melanoma = system: SK-MEL-28 melanoma
786-0 renal = system: 786-0 renal
CAKI-1 renal = system: CAKI-1 renal
SF-295 CNS = system: SF-295 CNS
KM12 colon = system: KM12 colon
RXF 393 renal = system: RXF 393 renal
M19-MEL melanoma = system: M19-MEL melanoma
SF-268 CNS = system: SF-268 CNS
ACHN renal = system: ACHN renal
M14 melanoma = system: M14 melanoma
NCI-H226 lung = system: NCI-H226 lung
UACC-257 melanoma = system: UACC-257 melanoma
SK-OV-3 ovarian = system: SK-OV-3 ovarian
EKVX NSCLC = system: EKVX NSCLC
MALME-3M melanoma = system: MALME-3M melanoma
OVCAR-3 ovarian = system: OVCAR-3 ovarian
RXF-631 renal = system: RXF-631 renal
HCT-116 colon = system: HCT-116 colon
UACC-62 melanoma = system: UACC-62 melanoma
MOLT-4 leukemia = system: MOLT-4 leukemia
NCI-H460 lung = system: NCI-H460 lung
SR leukemia = system: SR leukemia
DLD-1 colon = system: DLD-1 colon
K-562 leukemia = system: K-562 leukemia
OVCAR-4 ovarian = system: OVCAR-4 ovarian
SN12C renal = system: SN12C renal
IGROV1 ovarian = system: IGROV1 ovarian
HOP-62 NSCLC = system: HOP-62 NSCLC
SNB-19 CNS = system: SNB-19 CNS
NCI-H23 lung = system: NCI-H23 lung
LXFL 529 NSCLC = system: LXFL 529 NSCLC
OVCAR-8 ovarian = system: OVCAR-8 ovarian
SW-620 colon = system: SW-620 colon
NCI-H522 lung = system: NCI-H522 lung
RPMI-8226 leukemia = system: RPMI-8226 leukemia
XF 498 CNS = system: XF 498 CNS
HT29 colon = system: HT29 colon
OVCAR-5 ovarian = system: OVCAR-5 ovarian
HCT-15 colon = system: HCT-15 colon
HL-60(TB) leukemia = system: HL-60(TB) leukemia
SF-539 CNS = system: SF-539 CNS
A549 NSCLC = system: A549 NSCLC
KM20L2 colon = system: KM20L2 colon
CCRF-CEM leukemia = system: CCRF-CEM leukemia
SNB-78 CNS = system: SNB-78 CNS
SK-MEL-2 melanoma = system: SK-MEL-2 melanoma
UO-31 renal = system: UO-31 renal
U251 CNS = system: U251 CNS
COLO 205 colon = system: COLO 205 colon
SK-MEL-5 melanoma = system: SK-MEL-5 melanoma
HOP-18 NSCLC = system: HOP-18 NSCLC
LOX IMVI melanoma = system: LOX IMVI melanoma

`COc1ccc(-c2onc(-c3c(C)cc(C)cc3C)c2C2=NCCCN2)cc1` was tested, and the TGI (HCC-2998 colon) was over 100 µM, the TGI (SK-MEL-28 melanoma) was over 100 µM and the TGI (786-0 renal) was over 100 µM. For the same compound, the TGI (CAKI-1 renal) was 44.8 µM, the TGI (SF-295 CNS) was 56.6 µM and the TGI (KM12 colon) was over 100 µM. The TGI (RXF 393 renal) was over 100 µM, the TGI (M19-MEL melanoma) was over 100 µM and the TGI (SF-268 CNS) was over 100 µM. For the same compound, the TGI (ACHN renal) was over 100 µM, the TGI (M14 melanoma) was 40.8 µM and the TGI (NCI-H226 lung) was over 100 µM. For the same compound, the TGI (UACC-257 melanoma) was 70.1 µM, the TGI (SK-OV-3 ovarian) was over 100 µM and the TGI (EKVX NSCLC) was over 100 µM. The TGI (MALME-3M melanoma) was over 100 µM, the TGI (OVCAR-3 ovarian) was over 100 µM and the TGI (RXF-631 renal) was over 100 µM. For the same compound, the TGI (HCT-116 colon) was over 100 µM, the TGI (UACC-62 melanoma) was over 100 µM and the TGI (MOLT-4 leukemia) was over 100 µM. The TGI (NCI-H460 lung) was over 100 µM, the TGI (SR leukemia) was over 100 µM and the TGI (DLD-1 colon) was over 100 µM. For the same compound, the TGI (K-562 leukemia) was over 100 µM, the TGI (OVCAR-4 ovarian) was over 100 µM and the TGI (SN12C renal) was over 100 µM. It also gave a TGI (IGROV1 ovarian) of over 100 µM, a TGI (HOP-62 NSCLC) of over 100 µM and a TGI (SNB-19 CNS) of over 100 µM. The TGI (NCI-H23 lung) was over 100 µM, the TGI (LXFL 529 NSCLC) was over 100 µM and the TGI (OVCAR-8 ovarian) was over 100 µM. The TGI (SW-620 colon) was over 100 µM, the TGI (NCI-H522 lung) was 35.5 µM and the TGI (RPMI-8226 leukemia) was 86.5 µM. For the same compound, the TGI (XF 498 CNS) was over 100 µM, the TGI (HT29 colon) was over 100 µM and the TGI (OVCAR-5 ovarian) was over 100 µM. For the same compound, the TGI (HCT-15 colon) was over 100 µM, the TGI (HL-60(TB) leukemia) was 38.6 µM and the TGI (SF-539 CNS) was 53.7 µM. It also gave a TGI (A549 NSCLC) of over 100 µM, a TGI (KM20L2 colon) of over 100 µM and a TGI (CCRF-CEM leukemia) of over 100 µM. For the same compound, the TGI (SNB-78 CNS) was over 100 µM, the TGI (SK-MEL-2 melanoma) was 97.7 µM and the TGI (UO-31 renal) was over 100 µM. For the same compound, the TGI (U251 CNS) was 57.9 µM, the TGI (COLO 205 colon) was over 100 µM and the TGI (SK-MEL-5 melanoma) was 60.9 µM. For the same compound, the TGI (HOP-18 NSCLC) was over 100 µM and the TGI (LOX IMVI melanoma) was over 100 µM.
